This note sets out measurements from patent publication US20240261249A1, “NOVEL SQUARAMIDE DERIVATIVE AND USE THEREOF” (PUSAN NATIONAL UNIVERSITY INDUSTRY-UNIVERSITY COOPERATION …, priority 2021, published 2024).

In the test the test system is Phospho-eIF2α (Ser51). The test can be described thus: Phospho-eIF2α (Ser51) Sandwich ELISA in K562 cells. It counts as cell-based. The conditions noted are these: Homo sapiens, K562, 6 h, serum-free RPMI, 10 μM compound, control = 1, read-out: eIF2α phosphorylation, absorbance standardized to control (DMSO-treated) set to 1, at 10 μM. Here is the method: Pathscan Phospho-eIF2α (Ser51) Sandwich ELISA Kit #7286 from Cell signaling was used. The K562 cell line was cultured in serum-free RPMI medium at 37° C. in the presence of 5% CO2. Cells were treated with test compounds at a concentration of 10 μM. Six hours after compound treatment, the cells were lysed with a lysis buffer included in the kit to obtain 50 μg of protein by quantification. Afterwards, ELISA assay was performed according to the manufacturer's protocol to obtain absorbance. The absorbance for each obtained compound was standardized to a value of which the control (DMSO-treated) is set to 1.
In general terms: In an ELISA, binding on a coated surface is turned into a signal by an enzyme label.
Consider `O=c1c(Nc2ccccc2)c(N[C@H]2CC[C@H](Oc3ccc(C(F)(F)F)cc3)CC2)c1=O` [Compound 8, 3-(Phenylamino)-4-(((1,4-trans)-4-(4-(trifluoromethyl)phenoxy)cyclohexyl)amino)cyclobut-3-ene-1,2-dione], for which the activity at 10 µM is 95%.
The result for `N#Cc1ccc(O[C@H]2CC[C@H](Nc3c(Nc4ccccc4)c(=O)c3=O)CC2)cc1` [Compound 9, 4-(((1,4-trans)-4-((3,4-Dioxo-2-(phenylamino)cyclobut-1-en-1-yl)amino)cyclohexyl)oxy)benzonitrile] reads 88%; that for `O=c1c(Nc2ccccc2)c(N[C@H]2CC[C@H](Oc3ccc([N+](=O)[O-])cc3)CC2)c1=O` [Compound 10, 3-(((1,4-trans)-4-(4-Nitrophenoxy)cyclohexyl)amino)-4-(phenylamino)cyclobut-3-ene-1,2-dione], 84%.
The same measure for `CS(=O)(=O)c1ccc(O[C@H]2CC[C@H](Nc3c(Nc4ccccc4)c(=O)c3=O)CC2)cc1` [Compound 11, 3-(((1,4-trans)-4-(4-(Methylsulfonyl)phenoxy)cyclohexyl)amino)-4-(phenylamino)cyclobut-3-ene-1,2-dione]: 94%.
As for `NS(=O)(=O)c1ccc(O[C@H]2CC[C@H](Nc3c(Nc4ccccc4)c(=O)c3=O)CC2)cc1` [Compound 12, 4-(((1,4-trans)-4-((3,4-Dioxo-2-(phenylamino)cyclobut-1-en-1-yl)amino)cyclohexyl)oxy)benzenesulfonamide], the activity at 10 µM came out at 81%.
The same measure for `O=c1c(Nc2cccc(F)c2)c(N[C@H]2CC[C@H](Oc3ccc(C(F)(F)F)cc3)CC2)c1=O` [Compound 13, 3-((3-Fluorophenyl)amino)-4-(((1,4-trans)-4-(4-(trifluoromethyl)phenoxy)cyclohexyl)amino)cyclobut-3-ene]: 84%.
The result for `N#Cc1ccc(O[C@H]2CC[C@H](Nc3c(Nc4cccc(F)c4)c(=O)c3=O)CC2)cc1` [Compound 14, 4-(((1,4-trans)-4-((2-((3-Fluorophenyl)amino)-3,4-dioxocyclobut-1-en-1-yl)amino)cyclohexyl)oxy)benzonitrile] reads 90%.
The result for `O=c1c(Nc2cccc(F)c2)c(N[C@H]2CC[C@H](Oc3ccc([N+](=O)[O-])cc3)CC2)c1=O` [Compound 15, 3-((3-Fluorophenyl)amino)-4-(((1,4-trans)-4-(4-nitrophenoxy)cyclohexyl)amino)cyclobut-3-ene-1,2-dione] reads 81%.
Regarding `CS(=O)(=O)c1ccc(O[C@H]2CC[C@H](Nc3c(Nc4cccc(F)c4)c(=O)c3=O)CC2)cc1` [Compound 16, 3-((3-Fluorophenyl)amino)-4-(((1,4-trans)-4-(4-(methylsulfonyl)phenoxy)cyclohexyl)amino)cyclobut-3-ene-1,2-dione], the activity at 10 µM was 84%.
The same measure for `NS(=O)(=O)c1ccc(O[C@H]2CC[C@H](Nc3c(Nc4cccc(F)c4)c(=O)c3=O)CC2)cc1` [Compound 17, 4-(((1,4-trans)-4-((2-((3-Fluorophenyl)amino)-3,4-dioxocyclobut-1-en-1-yl)amino)cyclohexyl)oxy)benzenesulfonamide]: 86%; for `O=c1c(Nc2cccc(Cl)c2)c(N[C@H]2CC[C@H](Oc3ccc(C(F)(F)F)cc3)CC2)c1=O` [Compound 18, 3-((3-Chlorophenyl)amino)-4-(((1,4-trans)-4-(4-(trifluoromethyl)phenoxy)cyclohexyl)amino)cyclobut-3-ene-1,2-dione]: 71%.
The result for `CS(=O)(=O)c1ccc(O[C@H]2CC[C@H](Nc3c(Nc4cccc(Cl)c4)c(=O)c3=O)CC2)cc1` [Compound 21, 3-((3-Chlorophenyl)amino)-4-(((1,4-trans)-4-(4-(methylsulfonyl)phenoxy)cyclohexyl)amino)cyclobut-3-ene-1,2-dione] reads 77%; that for `NS(=O)(=O)c1ccc(O[C@H]2CC[C@H](Nc3c(Nc4cccc(Cl)c4)c(=O)c3=O)CC2)cc1` [Compound 22, 4-(((1,4-trans)-4-((2-((3-Chlorophenyl)amino)-3,4-dioxocyclobut-1-en-1-yl)amino)cyclohexyl)oxy)benzenesulfonamide], 219%; that for `NS(=O)(=O)c1ccc(O[C@H]2CC[C@H](Nc3c(Nc4cccc(C(F)(F)F)c4)c(=O)c3=O)CC2)cc1` [Compound 27, 4-(((1,4-trans)-4-((3,4-Dioxo-2-((3-(trifluoromethyl)phenyl)amino)cyclobut-1-en-1-yl)amino)cyclohexyl)oxy)benzenesulfonamide], 108%.
The same measure for `COc1cccc(Nc2c(N[C@H]3CC[C@H](Oc4ccc(C#N)cc4)CC3)c(=O)c2=O)c1` [Compound 34, 4-(((1,4-trans)-4-((2-((3-Methoxyphenyl)amino)-3,4-dioxocyclobut-1-en-1-yl)amino)cyclohexyl)oxy)benzonitrile]: 83%; for `COc1cccc(Nc2c(N[C@H]3CC[C@H](Oc4ccc(S(C)(=O)=O)cc4)CC3)c(=O)c2=O)c1` [Compound 36, 3-((3-Methoxyphenyl)amino)-4-(((1,4-trans)-4-(4-(methylsulfonyl)phenoxy)cyclohexyl)amino)cyclobut-3-ene-1,2-dione]: 60%; for `COc1cccc(Nc2c(N[C@H]3CC[C@H](Oc4ccc(S(N)(=O)=O)cc4)CC3)c(=O)c2=O)c1` [Compound 37, 4-(((1,4-trans)-4-((2-((3-Methoxyphenyl)amino)-3,4-dioxocyclobut-1-en-1-yl)amino)cyclohexyl)oxy)benzenesulfonamide]: 67%.
With `O=c1c(Nc2ccc(F)cc2)c(N[C@H]2CC[C@H](Oc3ccc(C(F)(F)F)cc3)CC2)c1=O` [Compound 38, 3-((4-Fluorophenyl)amino)-4-(((1,4-trans)-4-(4-(trifluoromethyl)phenoxy)cyclohexyl)amino)cyclobut-3-ene-1,2-dione], the activity at 10 µM worked out at 65%.
Take `N#Cc1ccc(O[C@H]2CC[C@H](Nc3c(Nc4ccc(F)cc4)c(=O)c3=O)CC2)cc1` [Compound 39, 4-(((1,4-trans)-4-((2-((4-Fluorophenyl)amino)-3,4-dioxocyclobut-1-en-1-yl)amino)cyclohexyl)oxy)benzonitrile]: the activity at 10 µM amounted to 83%.
As to `O=c1c(Nc2ccc(F)cc2)c(N[C@H]2CC[C@H](Oc3ccc([N+](=O)[O-])cc3)CC2)c1=O` [Compound 40, 3-((4-Fluorophenyl)amino)-4-(((1,4-trans)-4-(4-nitrophenoxy)cyclohexyl)amino)cyclobut-3-ene-1,2-dione], the activity at 10 µM came to 82%.
The result for `CS(=O)(=O)c1ccc(O[C@H]2CC[C@H](Nc3c(Nc4ccc(F)cc4)c(=O)c3=O)CC2)cc1` [Compound 41, 3-((4-Fluorophenyl)amino)-4-(((1,4-trans)-4-(4-(methylsulfonyl)phenoxy)cyclohexyl)amino)cyclobut-3-ene-1,2-dione] reads 62%; that for `O=c1c(Nc2ccc(Cl)cc2)c(N[C@H]2CC[C@H](Oc3ccc(C(F)(F)F)cc3)CC2)c1=O` [Compound 42, 3-((4-Chlorophenyl)amino)-4-(((1,4-trans)-4-(4-(trifluoromethyl)phenoxy)cyclohexyl)amino)cyclobut-3-ene-1,2-dione], 93%; that for `N#Cc1ccc(O[C@H]2CC[C@H](Nc3c(Nc4ccc(Cl)cc4)c(=O)c3=O)CC2)cc1` [Compound 43, 4-(((1,4-trans)-4-((2-((4-Chlorophenyl)amino)-3,4-dioxocyclobut-1-en-1-yl)amino)cyclohexyl)oxy)benzonitrile], 87%.
For `O=c1c(Nc2ccc(Cl)cc2)c(N[C@H]2CC[C@H](Oc3ccc([N+](=O)[O-])cc3)CC2)c1=O` [Compound 44, 3-((4-Chlorophenyl)amino)-4-(((1,4-trans)-4-(4-nitrophenoxy)cyclohexyl)amino)cyclobut-3-ene-1,2-dione], the activity at 10 µM turned out to be 147%.
The result for `CS(=O)(=O)c1ccc(O[C@H]2CC[C@H](Nc3c(Nc4ccc(Cl)cc4)c(=O)c3=O)CC2)cc1` [Compound 45, 3-((4-Chlorophenyl)amino)-4-(((1,4-trans)-4-(4-(methylsulfonyl)phenoxy)cyclohexyl)amino)cyclobut-3-ene-1,2-dione] reads 79%; that for `O=c1c(Nc2ccc(C(F)(F)F)cc2)c(N[C@H]2CC[C@H](Oc3ccc(C(F)(F)F)cc3)CC2)c1=O` [Compound 46, 3-(((1,4-trans)-4-(4-(Trifluoromethyl)phenoxy)cyclohexyl)amino)-4-((4-(trifluoromethyl)phenyl)amino)cyclobut-3-ene-1,2-dione], 71%; that for `N#Cc1ccc(O[C@H]2CC[C@H](Nc3c(Nc4ccc(C(F)(F)F)cc4)c(=O)c3=O)CC2)cc1` [Compound 47, 4-(((1,4-trans)-4-((3,4-Dioxo-2-((4-(trifluoromethyl)phenyl)amino)cyclobut-1-en-1-yl)amino)cyclohexyl)oxy)benzonitrile], 51%.
The result for `O=c1c(Nc2ccc(C(F)(F)F)cc2)c(N[C@H]2CC[C@H](Oc3ccc([N+](=O)[O-])cc3)CC2)c1=O` [Compound 48, 3-(((1,4-trans)-4-(4-Nitrophenoxy)cyclohexyl)amino)-4-((4-(trifluoromethyl)phenyl)amino)cyclobut-3-ene-1,2-dione] reads 91%; that for `CC(C)(C)c1ccc(Nc2c(N[C@H]3CC[C@H](Oc4ccc(C(F)(F)F)cc4)CC3)c(=O)c2=O)cc1` [Compound 50, 3-((4-(tert-Butyl)phenyl)amino)-4-(((1,4-trans)-4-(4-(trifluoromethyl)phenoxy)cyclohexyl)amino)cyclobut-3-ene-1,2-dione], 204%.
